For 16 molecules, IC50 results are on record in patent US20240199702A1, “CELL-PERMEABLE CYCLIC PEPTIDES AND USES THEREOF” (Unnatural Products Inc., priority 2021, published 2024).

The target of assay [1] is T1, Human MDM2 (HDM2) 1-116 (Homo sapiens, UniProt Q00987).
T1 construct: Human MDM2 (HDM2) 1-116
Description: Fluorescence Polarization Assay 1 (MDM2/p53 peptide). Format: binding. The following applies: FAM-labeled p53 peptide, 60 minutes. The procedure:
Fluorescence Polarization Assay 1
(§1) Human MDM2 (HDM2) 1-116 (20 μL) and FAM-labeled GGTSFAEYWNLLSP-NH2, 10 nM and 5 nM respectively in 10 mM Tris, 50 mM NaCl, 0.01% Tween20, and 1 mM DTT at pH 7.4 were dispensed into an opaque, black, 384 well plate. Compounds dissolved in DMSO were pin transferred (˜100-200 nL) to the 384 well plate containing the MDM2/p53 solution. After incubation for 60 minutes, the fluorescence polarization was read on a Molecular Devices SpectraMax plate reader equipped with a Fluorescein FP cartridge. In addition to probe alone (positive control) and probe/MDM2 (negative control), a titration of linear p53(18-26) was included on every plate as an additional control. IC50 values were fit using either Prism or Collaborative Drug Discovery.

In assay [2] the target is T2, Human MDM4 (HDM4) 1-114 (Homo sapiens, UniProt O15151).
T2 construct: Human MDM4 (HDM4) 1-114
T2 sequence (O15151 1-114): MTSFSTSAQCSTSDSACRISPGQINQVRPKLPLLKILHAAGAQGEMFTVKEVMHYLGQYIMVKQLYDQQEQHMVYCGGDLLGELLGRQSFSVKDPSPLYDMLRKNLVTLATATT
As to the kind of experiment: Fluorescence Polarization Assay 2 (MDM4/p53 peptide). The format is binding. Conditions: FAM-labeled p53 peptide, 60 minutes. As to the method:
Fluorescence Polarization Assay 2
as §1, with “MDM4 (HDM4) 1-114” for “MDM2 (HDM2) 1-116”, “GGTSFAEYWNLLSP —NH2, 20” for “GGTSFAEYWNLLSP-NH2, 10”, “(−100-200” for “(˜100-200”, “MDM4/p53” for “MDM2/p53”, “probe/MDM4” for “probe/MDM2”

Where a SMILES comes first, the peptide text is derived from it. [ ]: non-standard residue; d: D form. The star is where a group is joined. Ala(4-thiazolyl) = N[C@@H](Cc1cscn1)C(=O)O; NMeAla(cPent) = CN[C@@H](CC1CCCC1)C(=O)O; Phe(4-Cl) = N[C@@H](Cc1ccc(Cl)cc1)C(=O)O; Phe(4-F) = N[C@@H](Cc1ccc(F)cc1)C(=O)O; Ala(cPent) = N[C@@H](CC1CCCC1)C(=O)O; Cyclohexanecarbonyl = O=C(C1CCCCC1)*; NMeCba = CN[C@@H](CC1CCC1)C(=O)O; NMeF = CN[C@@H](Cc1ccccc1)C(=O)O; NMeI = CC[C@H](C)[C@H](NC)C(=O)O; NMeT = CN[C@H](C(=O)O)[C@@H](C)O; Cba = N[C@@H](CC1CCC1)C(=O)O; Nicotinoyl = O=C(c1cccnc1)*; Isovaleryl = CC(C)CC(=O)*; Methoxyacetyl = COCC(=O)*; hSer = N[C@@H](CCO)C(=O)O; NMeA = CN[C@@H](C)C(=O)O; dNMeA = CN[C@H](C)C(=O)O; Bz = O=C(c1ccccc1)*; Nme = COCCNCC(=O)O; X1 = O=C(C(F)F)*; Sar = CNCC(=O)O

T1 sequence (Q00987 1-116): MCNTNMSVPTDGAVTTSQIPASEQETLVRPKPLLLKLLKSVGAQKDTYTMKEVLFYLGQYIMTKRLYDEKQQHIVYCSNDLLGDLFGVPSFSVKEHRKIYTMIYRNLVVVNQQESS

Take `COCC[C@@H]1NC(=O)[C@H]2CCCN2C(=O)[C@H](Cc2ccccc2)N(C)C(=O)[C@H](Cc2ccc(Cl)cc2)NC(=O)[C@H]([C@@H](C)OC)NC(=O)[C@H](Cc2ccc(F)cc2)NC(=O)CN(CCOC)C(=O)[C@@H](C)N(C)C(=O)[C@H](Cc2cscn2)NC(=O)[C@H](C)N(C)C1=O` [compound 12] (cyclo([Ala(4-thiazolyl)][dNMeA][Nme][Phe(4-F)]T(Me)[Phe(4-Cl)][NMeF][dP][hSer](Me)[NMeA])): the IC50 in assay [1] and in assay [2] was less than 25 nM in each case.

`COCC[C@@H]1NC(=O)[C@H]2CCCN2C(=O)[C@H](Cc2ccccc2)N(C)C(=O)[C@H](Cc2ccc(Cl)cc2)NC(=O)[C@H]([C@@H](C)O)N(C)C(=O)[C@H](Cc2ccc(F)cc2)NC(=O)CN(CCOC)C(=O)[C@@H](C)N(C)C(=O)[C@H](Cc2cscn2)NC(=O)[C@H](C)N(C)C1=O` [compound 19] (cyclo([Ala(4-thiazolyl)][dNMeA][Nme][Phe(4-F)][NMeT][Phe(4-Cl)][NMeF][dP][hSer](Me)[NMeA])): the half-maximal inhibitory concentration (IC50) is less than 25 nM in assay [1] and 50 to 100 nM in assay [2].

As to `COCC[C@@H]1NC(=O)[C@H]2CCCN2C(=O)[C@H](Cc2ccccc2)N(C)C(=O)[C@H](Cc2ccc(Cl)cc2)NC(=O)[C@H]([C@@H](C)OC)N(C)C(=O)[C@H](Cc2ccc(F)cc2)NC(=O)CN(CCOC)C(=O)[C@@H](C)N(C)C(=O)[C@H](Cc2cscn2)NC(=O)[C@H](C)N(C)C1=O` [compound 20] (cyclo([Ala(4-thiazolyl)][dNMeA][Nme][Phe(4-F)][NMeT](Me)[Phe(4-Cl)][NMeF][dP][hSer](Me)[NMeA])), the concentration for half-maximal inhibition (IC50) in assay [1] was less than 25 nM; in assay [2] it was 50 to 100 nM.

On to `COCC[C@@H]1NC(=O)[C@H]2CCCN2C(=O)[C@H](Cc2ccccc2)N(C)C(=O)[C@H](Cc2ccc(Cl)cc2)NC(=O)[C@H](CC2CCC2)N(C)C(=O)[C@H](Cc2ccc(F)cc2)NC(=O)CN(CCOC)C(=O)[C@@H](C)N(C)C(=O)[C@H](Cc2cscn2)NC(=O)[C@H](C)N(C)C1=O` [compound 9] (cyclo([Ala(4-thiazolyl)][dNMeA][Nme][Phe(4-F)][NMeCba][Phe(4-Cl)][NMeF][dP][hSer](Me)[NMeA])), for which the figures for the IC50 in assay [1] and in assay [2] were less than 25 nM and 50 to 100 nM, respectively.

As to `COCC[C@@H]1NC(=O)[C@H]2CCCN2C(=O)[C@H](Cc2ccccc2)N(C)C(=O)[C@H](Cc2ccc(Cl)cc2)NC(=O)[C@H]([C@@H](C)OC(=O)c2cccnc2)NC(=O)[C@H](Cc2ccc(F)cc2)NC(=O)CN(CCOC)C(=O)[C@@H](C)N(C)C(=O)[C@H](Cc2cscn2)NC(=O)[C@H](C)N(C)C1=O` [compound 3] (cyclo([Ala(4-thiazolyl)][dNMeA][Nme][Phe(4-F)]T(Nicotinoyl)[Phe(4-Cl)][NMeF][dP][hSer](Me)[NMeA])), the IC50 in assay [1] is less than 25 nM; in assay [2], 50 to 100 nM.

Take `COCC[C@@H]1NC(=O)[C@H]2CCCN2C(=O)[C@H](Cc2ccccc2)N(C)C(=O)[C@H](Cc2ccc(Cl)cc2)NC(=O)[C@H]([C@@H](C)OC(=O)C2CCCCC2)NC(=O)[C@H](Cc2ccc(F)cc2)NC(=O)CN(CCOC)C(=O)[C@@H](C)N(C)C(=O)[C@H](Cc2cscn2)NC(=O)[C@H](C)N(C)C1=O` [compound 8] (cyclo([Ala(4-thiazolyl)][dNMeA][Nme][Phe(4-F)]T(Cyclohexanecarbonyl)[Phe(4-Cl)][NMeF][dP][hSer](Me)[NMeA])): the IC50 in assay [1] and in assay [2] was not below 100 nM in each case.

With `COCC[C@@H]1NC(=O)[C@H]2CCCN2C(=O)[C@H](Cc2ccccc2)N(C)C(=O)[C@H](Cc2ccc(Cl)cc2)NC(=O)[C@H](C(C)C)NC(=O)[C@H](Cc2ccc(F)cc2)NC(=O)CN(C)C(=O)[C@@H](C)N(C)C(=O)[C@H](Cc2cscn2)NC(=O)[C@H](C)N(C)C1=O` [compound 13] (cyclo([Ala(4-thiazolyl)][dNMeA][Sar][Phe(4-F)]V[Phe(4-Cl)][NMeF][dP][hSer](Me)[NMeA])), the 50% inhibitory concentration (IC50) in assay [1] was less than 25 nM; in assay [2], 25 to 50 nM.

Take `COCC[C@@H]1NC(=O)[C@H]2CCCN2C(=O)[C@H](Cc2ccccc2)N(C)C(=O)[C@H](Cc2ccc(Cl)cc2)NC(=O)[C@H](CC2CCCC2)N(C)C(=O)[C@H](Cc2ccc(F)cc2)NC(=O)CN(CCOC)C(=O)[C@@H](C)N(C)C(=O)[C@H](Cc2cscn2)NC(=O)[C@H](C)N(C)C1=O` [compound 10] (cyclo([Ala(4-thiazolyl)][dNMeA][Nme][Phe(4-F)][NMeAla(cPent)][Phe(4-Cl)][NMeF][dP][hSer](Me)[NMeA])): the IC50 in assay [1] is less than 25 nM; in assay [2] it was not below 100 nM.

As to `COCC[C@@H]1NC(=O)[C@H]2CCCN2C(=O)[C@H](Cc2ccccc2)N(C)C(=O)[C@H](Cc2ccc(Cl)cc2)NC(=O)[C@H]([C@@H](C)OC(C)=O)NC(=O)[C@H](Cc2ccc(F)cc2)NC(=O)CN(CCOC)C(=O)[C@@H](C)N(C)C(=O)[C@H](Cc2cscn2)NC(=O)[C@H](C)N(C)C1=O` [compound 1] (cyclo([Ala(4-thiazolyl)][dNMeA][Nme][Phe(4-F)]T(Ac)[Phe(4-Cl)][NMeF][dP][hSer](Me)[NMeA])), the IC50 was less than 25 nM in assay [1] and 25 to 50 nM in assay [2].

For `COCC[C@@H]1NC(=O)[C@H]2CCCN2C(=O)[C@H](Cc2ccccc2)N(C)C(=O)[C@H](Cc2ccc(Cl)cc2)NC(=O)[C@H]([C@@H](C)OC(=O)COC)NC(=O)[C@H](Cc2ccc(F)cc2)NC(=O)CN(CCOC)C(=O)[C@@H](C)N(C)C(=O)[C@H](Cc2cscn2)NC(=O)[C@H](C)N(C)C1=O` [compound 4] (cyclo([Ala(4-thiazolyl)][dNMeA][Nme][Phe(4-F)]T(Methoxyacetyl)[Phe(4-Cl)][NMeF][dP][hSer](Me)[NMeA])), the IC50 in assay [1] is less than 25 nM; in assay [2], 25 to 50 nM.

For `CC[C@H](C)[C@H]1C(=O)N[C@@H](Cc2ccc(Cl)cc2)C(=O)N(C)[C@@H](Cc2ccccc2)C(=O)N2CCC[C@@H]2C(=O)N[C@@H](CCOC)C(=O)N(C)[C@@H](C)C(=O)N[C@@H](Cc2cscn2)C(=O)N(C)[C@H](C)C(=O)N(CCOC)CC(=O)N[C@@H](Cc2ccc(F)cc2)C(=O)N1C` [compound 17] (cyclo([Ala(4-thiazolyl)][dNMeA][Nme][Phe(4-F)][NMeI][Phe(4-Cl)][NMeF][dP][hSer](Me)[NMeA])), the IC50 in assay [1] was less than 25 nM; in assay [2], not below 100 nM.

Take `COCC[C@@H]1NC(=O)[C@H]2CCCN2C(=O)[C@H](Cc2ccccc2)N(C)C(=O)[C@H](Cc2ccc(Cl)cc2)NC(=O)[C@H](CC2CCCC2)NC(=O)[C@H](Cc2ccc(F)cc2)NC(=O)CN(CCOC)C(=O)[C@@H](C)N(C)C(=O)[C@H](C)N(C)C1=O` [compound 15] (cyclo([Ala(cPent)][Phe(4-Cl)][NMeF][dP][hSer](Me)[NMeA][dNMeA][Nme][Phe(4-F)])): the IC50 in assay [1] is less than 25 nM; in assay [2], 50 to 100 nM.

As to `COCC[C@@H]1NC(=O)[C@H]2CCCN2C(=O)[C@H](Cc2ccccc2)N(C)C(=O)[C@H](Cc2ccc(Cl)cc2)NC(=O)[C@H]([C@@H](C)OC(=O)c2ccccc2)NC(=O)[C@H](Cc2ccc(F)cc2)NC(=O)CN(CCOC)C(=O)[C@@H](C)N(C)C(=O)[C@H](Cc2cscn2)NC(=O)[C@H](C)N(C)C1=O` [compound 2] (cyclo([Ala(4-thiazolyl)][dNMeA][Nme][Phe(4-F)]T(Bz)[Phe(4-Cl)][NMeF][dP][hSer](Me)[NMeA])), the half-inhibitory concentration (IC50) in assay [1] and in assay [2] was less than 25 nM in each case.

For the molecule `COCC[C@@H]1NC(=O)[C@H]2CCCN2C(=O)[C@H](Cc2ccccc2)N(C)C(=O)[C@H](Cc2ccc(Cl)cc2)NC(=O)[C@H]([C@@H](C)OC(=O)CC(C)C)NC(=O)[C@H](Cc2ccc(F)cc2)NC(=O)CN(CCOC)C(=O)[C@@H](C)N(C)C(=O)[C@H](Cc2cscn2)NC(=O)[C@H](C)N(C)C1=O` [compound 5] (cyclo([Ala(4-thiazolyl)][dNMeA][Nme][Phe(4-F)]T(Isovaleryl)[Phe(4-Cl)][NMeF][dP][hSer](Me)[NMeA])), the half-maximal inhibitory concentration (IC50) was 25 to 50 nM in assay [1] and 50 to 100 nM in assay [2].

With `COCC[C@@H]1NC(=O)[C@H]2CCCN2C(=O)[C@H](Cc2ccccc2)N(C)C(=O)[C@H](Cc2ccc(Cl)cc2)NC(=O)[C@H](CC2CCC2)NC(=O)[C@H](Cc2ccc(F)cc2)NC(=O)CN(CCOC)C(=O)[C@@H](C)N(C)C(=O)[C@H](C)N(C)C1=O` [compound 14] (cyclo([Cba][Phe(4-Cl)][NMeF][dP][hSer](Me)[NMeA][dNMeA][Nme][Phe(4-F)])), the IC50 in assay [1] is less than 25 nM; in assay [2] it was 25 to 50 nM.

Consider `COCC[C@@H]1NC(=O)[C@H]2CCCN2C(=O)[C@H](Cc2ccccc2)N(C)C(=O)[C@H](Cc2ccc(Cl)cc2)NC(=O)[C@H]([C@@H](C)OC(=O)C(F)F)NC(=O)[C@H](Cc2ccc(F)cc2)NC(=O)CN(CCOC)C(=O)[C@@H](C)N(C)C(=O)[C@H](Cc2cscn2)NC(=O)[C@H](C)N(C)C1=O` [compound 7] (cyclo([Ala(4-thiazolyl)][dNMeA][Nme][Phe(4-F)]T(X1)[Phe(4-Cl)][NMeF][dP][hSer](Me)[NMeA])), for which the half-inhibitory concentration (IC50) lay within 25 to 50 nM in assay [1] and 50 to 100 nM in assay [2].
